# Reference: patent US20220030868A1, “FUNGICIDAL HALOMETHYL KETONES AND HYDRATES” (FMC CORPORATION, priority 2018, published 2022)
# Marks after values point to notes of the source that are not given here.
# Key:
# Type in all cases: in vivo
# [1] = tested on: Uncinula necator; test: Test C: test suspension sprayed on grape seedlings one day before inoculation with Uncinula necator spores (grape powdery mildew), disease rating; conditions: 50 ppm test suspension, 100 = 100% disease control; for pest or weed control at 50 ppm: Erysiphe necator
# Source text: General protocol for preparing test suspensions for Tests A-C: the test compounds were first dissolved in acetone in an amount equal to 3% of the final volume and then suspended at the desired concentration (in ppm) in acetone and purified water (50/50 mix by volume) containing 250 ppm of the surfactant PEG400 (polyhydric alcohol esters). The resulting test suspensions were then used in Tests A-C. The test solution was sprayed to the point of run-off on grape seedlings. The following day the seedlings were inoculated with a spore suspension of Uncinula necator (the causal agent of grape powdery mildew) and incubated in a growth chamber at 20° C. for 12 days, after which time disease ratings were made. Results for Tests A-C are given in Table A. In the Table, a rating of 100 indicates 100% disease control and a rating of 0 indicates no disease control (relative to the controls). An asterisk “*” or a double asterisk “**” next to the rating value indicates a 50 ppm or 10 ppm test suspension was used, respectively. A dash (-) indicates the compound was not tested.
# [2] = tested on: Phakopsora pachyrhizi; test: Test A: test suspension sprayed on soybean seedlings one day before inoculation with Phakopsora pachyrhizi spores (Asian soybean rust), visual disease rating; conditions: 100 = 100% disease control, 0 = no control; for pest or weed control at 10 ppm / pest or weed control at 50 ppm: Phakopsora pachyrhizi
# Method in brief: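 Soybean seedlings were sprayed to run-off with test suspension (acetone 3% of volume, acetone/water 50/50, 250 ppm PEG400) and inoculated with rust spores one day later. Incubation: 24 h saturated atmosphere at 22° C, then 8 days growth chamber at 22° C; scores 0–100 relative to untreated controls.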
# [3] = tested on: Puccinia recondita f. sp. tritici; test: Test B: test suspension sprayed on wheat seedlings one day before inoculation with Puccinia recondita f. sp. tritici spores (wheat leaf rust), disease rating; conditions: 100 = 100% disease control, 0 = no control
# Method in brief: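 Wheat seedlings were sprayed to run-off with compound suspended in 50/50 acetone/water containing 250 ppm PEG400, then inoculated with P. recondita f. sp. tritici spores the next day. Plants were held 24 h in saturated air at 20 °C, then 6 days in a growth chamber at 20 °C. Disease control was rated 0–100% relative to controls, with some entries run at 50 or 10 ppm.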
smiles,measurement,setting,value
"CCOC(=O)c1cnn(CCc2ccc(O/C=C(\OCC)C(F)(F)F)cc2)c1 [Compound 132, ethyl 1-[2-[4-[[(1Z)-2-ethoxy-3,3,3-trifluoro-1-propen-1-yl]oxy]phenyl]ethyl]-1H-pyrazole-4-carboxylate]",pest or weed control at 50 ppm,[1],98%
same,pest or weed control at 10 ppm,[2]; 10 ppm test suspension,100%
same,pest or weed control at 10 ppm,[3]; 10 ppm test suspension,0%
CCOC(=O)c1cnn(Cc2ccc(OCC3(C(F)(F)F)OCCO3)cn2)c1 [compound 124],pest or weed control at 50 ppm,[1],100%
same,pest or weed control at 50 ppm,[2]; 50 ppm test suspension,100%
same,pest or weed control at 50 ppm,[3]; 50 ppm test suspension,0%
CCO/C(=C\Oc1ccc(Cn2cc(C(=O)OCCC#N)cn2)cc1)C(F)(F)F [compound 245],Test C rating (disease control),[1],98* %
same,Test A rating (disease control),[2]; 10 ppm test suspension,100%
same,Test B rating (disease control),[3]; 10 ppm test suspension,0%
O=C(COC(=O)c1cnn(Cc2ccc(OCC3(C(F)(F)F)OCCO3)cc2)c1)c1ccccc1 [compound 170],Test C rating (disease control),[1],100* %
same,Test A rating (disease control),[2]; 10 ppm test suspension,100%
same,Test B rating (disease control),[3]; 10 ppm test suspension,0%
"CCCCOC(=O)c1cnn(Cc2ccc(O/C=C(\OCC)C(F)(F)F)cc2)c1 [Compound 218, butyl 1-[[4-[[(1Z)-2-ethoxy-3,3,3-trifluoro-1-propen-1-yl]oxy]phenyl]methyl]-1H-pyrazole-4-carboxylate]",pest or weed control at 50 ppm,[1],100%
same,pest or weed control at 10 ppm,[2]; 10 ppm test suspension,100%
same,pest or weed control at 10 ppm,[3]; 10 ppm test suspension,0%
"CCOC(=O)c1cnn(Cc2ccc(O/C=C(\OCC)C(F)(F)F)c(F)c2)c1 [Compound 262, ethyl 1-[[4-[[(1Z)-2-ethoxy-3,3,3-trifluoro-1-propen-1-yl]oxy]-3-fluorophenyl]methyl]-1H-pyrazole-4-carboxylate]",pest or weed control at 50 ppm,[1],99%
same,pest or weed control at 10 ppm,[2]; 10 ppm test suspension,100%
same,pest or weed control at 10 ppm,[3]; 10 ppm test suspension,0%
"O=C(OCC1CC1)c1cnn(Cc2ccc(OCC3(C(F)(F)F)OCCO3)cc2)c1 [Compound 127, cyclopropylmethyl 1-[[4-[[2-(trifluoromethyl)-1,3-dioxolan-2-yl]methoxy]phenyl]methyl]-1H-pyrazole-4-carboxylate]",pest or weed control at 50 ppm,[1],100%
same,pest or weed control at 10 ppm,[2]; 10 ppm test suspension,100%
same,pest or weed control at 10 ppm,[3]; 10 ppm test suspension,0%
"CCO/C(=C\Oc1ccc(Cn2cc(C(=O)OCCCCl)cn2)cc1)C(F)(F)F [Compound 221, 3-chloropropyl 1-[[4-[[(1Z)-2-ethoxy-3,3,3-trifluoro-1-propen-1-yl]oxy]phenyl]methyl]-1H-pyrazole-4-carboxylate]",pest or weed control at 50 ppm,[1],100%
same,pest or weed control at 10 ppm,[2]; 10 ppm test suspension,100%
same,pest or weed control at 10 ppm,[3]; 10 ppm test suspension,0%
C#CCOC(=O)c1cnn(Cc2ccc(O/C=C(\OCC)C(F)(F)F)cc2)c1 [compound 185],Test C rating (disease control),[1],100* %
same,Test A rating (disease control),[2]; 10 ppm test suspension,100%
same,Test B rating (disease control),[3]; 10 ppm test suspension,0%
CCCOC(=O)c1cnn(Cc2ccc(O/C=C(\OCC)C(F)(F)F)cc2)c1 [compound 217],Test C rating (disease control),[1],100* %
same,Test A rating (disease control),[2]; 10 ppm test suspension,100%
same,Test B rating (disease control),[3]; 10 ppm test suspension,0%
"CC#CCOC(=O)c1cnn(Cc2ccc(OCC3(C(F)(F)F)OCCO3)cc2)c1 [Compound 163, 2-butyn-1-yl 1-[[4-[[2-(trifluoromethyl)-1,3-dioxolan-2-yl]methoxy]phenyl]methyl]-1H-pyrazole-4-carboxylate]",pest or weed control at 50 ppm,[1],100%
same,pest or weed control at 10 ppm,[2]; 10 ppm test suspension,100%
same,pest or weed control at 10 ppm,[3]; 10 ppm test suspension,0%
CCO/C(=C\Oc1ccc(Cn2cc(C(=O)OCC(C)=O)cn2)cc1)C(F)(F)F [compound 216],Test C rating (disease control),[1],100* %
same,Test A rating (disease control),[2]; 10 ppm test suspension,100%
same,Test B rating (disease control),[3]; 10 ppm test suspension,0%
"CC(C)COC(=O)c1cnn(Cc2ccc(OCC3(C(F)(F)F)OCCO3)cc2)c1 [Compound 126, 2-methylpropyl 1-[[4-[[2-(trifluoromethyl)-1,3-dioxolan-2-yl]methoxy]phenyl]methyl]-1H-pyrazole-4-carboxylate]",pest or weed control at 50 ppm,[1],100%
same,pest or weed control at 10 ppm,[2]; 10 ppm test suspension,100%
same,pest or weed control at 10 ppm,[3]; 10 ppm test suspension,0%
CCO/C(=C\Oc1ccc(Cn2cc(C(=O)OCC(C)C)cn2)cc1)C(F)(F)F [compound 219],Test C rating (disease control),[1],100* %
same,Test A rating (disease control),[2]; 10 ppm test suspension,100%
same,Test B rating (disease control),[3]; 10 ppm test suspension,0%
"COCCOC(=O)c1cnn(Cc2ccc(OCC3(C(F)(F)F)OCCO3)cc2)c1 [Compound 162, 2-methoxyethyl 1-[[4-[[2-(trifluoromethyl)-1,3-dioxolan-2-yl]methoxy]phenyl]methyl]-1H-pyrazole-4-carboxylate]",pest or weed control at 50 ppm,[1],100%
same,pest or weed control at 10 ppm,[2]; 10 ppm test suspension,100%
same,pest or weed control at 10 ppm,[3]; 10 ppm test suspension,0%
"CCOC(=O)c1cnn(Cc2cccc(O/C=C(\OCC)C(F)(F)F)c2)c1 [Compound 265, ethyl 1-[[3-[[(1Z)-2-ethoxy-3,3,3-trifluoro-1-propen-1-yl]oxy]phenyl]methyl]-1H-pyrazole-4-carboxylate]",pest or weed control at 50 ppm,[1],100%
same,pest or weed control at 50 ppm,[2]; 50 ppm test suspension,100%
same,pest or weed control at 50 ppm,[3]; 50 ppm test suspension,0%
CCO/C(=C\Oc1ccc(Cn2cc(C(=O)OC)cn2)cc1)C(F)(F)F [compound 138],Test C rating (disease control),[1],100* %
same,Test A rating (disease control),[2]; 10 ppm test suspension,100%
same,Test B rating (disease control),[3]; 10 ppm test suspension,0%
CCO/C(=C\Oc1ccc(Cc2ncc(C(=O)NCC(F)F)s2)cc1)C(F)(F)F [compound 276],Test C rating (disease control),[1],100* %
same,Test A rating (disease control),[2]; 10 ppm test suspension,13%
same,Test B rating (disease control),[3]; 10 ppm test suspension,0%
"CCOC(=O)c1cnn(Cc2ccc(OCC3(C(F)(F)F)OCCO3)cc2)c1 [Compound 32, ethyl 1-[[4-[[2-(trifluoromethyl)-1,3-dioxolan-2-yl]methoxy]phenyl]methyl]-1H-pyrazole-4-carboxylate]",pest or weed control at 50 ppm,[1],100%
same,pest or weed control at 50 ppm,[2]; 50 ppm test suspension,100%
same,pest or weed control at 50 ppm,[3]; 50 ppm test suspension,68%
CCO/C(=C\Oc1ccc(Cc2ccnc(S(C)(=O)=O)n2)cc1)C(F)(F)F [compound 307],Test A rating (disease control),[2]; 50 ppm test suspension,0%
same,Test B rating (disease control),[3]; 50 ppm test suspension,0%
CCO/C(=C\Oc1ccc(Cn2cc(Cl)cn2)cc1)C(F)(F)F [compound 180],Test A rating (disease control),[2]; 10 ppm test suspension,0%
same,Test B rating (disease control),[3]; 10 ppm test suspension,0%
CCO/C(=C\Oc1ccc(CN2CCC(C#N)CC2)cc1)C(F)(F)F [compound 311],Test A rating (disease control),[2]; 10 ppm test suspension,0%
same,Test B rating (disease control),[3]; 10 ppm test suspension,0%
CCCOC(=O)c1ccn(Cc2ccc(O/C=C(\OCC)C(F)(F)F)cc2)n1 [compound 292],Test A rating (disease control),[2]; 10 ppm test suspension,100%
same,Test B rating (disease control),[3]; 10 ppm test suspension,0%
FC(F)(F)C1(COc2ccc(CNC(=S)NC3CCCCC3)cc2)OCCO1 [compound 77],Test A rating (disease control),[2]; 10 ppm test suspension,0%
same,Test B rating (disease control),[3]; 10 ppm test suspension,0%
CCO/C(=C\Oc1ccc(Cn2ncc3cccnc32)cc1)C(F)(F)F [compound 87],Test A rating (disease control),[2]; 10 ppm test suspension,0%
same,Test B rating (disease control),[3]; 10 ppm test suspension,0%
CCOC(=O)c1cnn(Cc2ccc(O/C=C(\OCCO)C(F)(F)F)cc2)c1 [compound 145],Test A rating (disease control),[2]; 10 ppm test suspension,82%
same,Test B rating (disease control),[3]; 10 ppm test suspension,0%
CCOC(=O)c1cnn(Cc2ccc(C(O)CC(O)(O)C(F)(F)F)cc2)c1 (stereo not drawn) [Compound 51],Test A rating (disease control),[2]; 10 ppm test suspension,0%
same,Test B rating (disease control),[3]; 10 ppm test suspension,0%
C=CCOC(=O)c1cnn(Cc2ccc(OCC3(C(F)(F)F)OCCO3)cc2)c1 [compound 188],Test A rating (disease control),[2]; 10 ppm test suspension,100%
same,Test B rating (disease control),[3]; 10 ppm test suspension,0%
CCOC(=O)c1cnn(C(C)c2ccc(OCC(O)(O)C(F)(F)F)cc2)c1 (stereo not drawn) [Compound 35],Test A rating (disease control),[2]; 10 ppm test suspension,99%
same,Test B rating (disease control),[3]; 10 ppm test suspension,32%
O=C(OCc1ccc(F)c(F)c1)c1cnn(Cc2ccc(OCC3(C(F)(F)F)OCCO3)cc2)c1 [compound 18],Test A rating (disease control),[2]; 10 ppm test suspension,100%
same,Test B rating (disease control),[3]; 10 ppm test suspension,0%
N#Cc1cnn(Cc2ccc(OCC(O)(O)C(F)(F)F)cc2)c1 [Compound 206],Test A rating (disease control),[2]; 50 ppm test suspension,100%
same,Test B rating (disease control),[3]; 50 ppm test suspension,98%
O=C(OCC1CCCC1)c1cnn(Cc2ccc(OCC3(C(F)(F)F)OCCO3)cc2)c1 [compound 284],Test A rating (disease control),[2]; 10 ppm test suspension,100%
same,Test B rating (disease control),[3]; 10 ppm test suspension,0%
O=C(NCC(F)F)c1cnc(Cc2ccc(OCC(O)(O)C(F)(F)F)cc2)s1 [Compound 295],Test A rating (disease control),[2]; 50 ppm test suspension,99%
same,Test B rating (disease control),[3]; 50 ppm test suspension,80%
CCOC(=O)c1csc(Cc2ccc(OCC3(C(F)(F)F)OCCO3)cc2)n1 [Compound 137],Test A rating (disease control),[2]; 10 ppm test suspension,79%
same,Test B rating (disease control),[3]; 10 ppm test suspension,0%
FC(F)(F)C1(COc2ccc(-c3ccccc3)cc2)OCCO1 [compound 190],Test A rating (disease control),[2]; 10 ppm test suspension,0%
same,Test B rating (disease control),[3]; 10 ppm test suspension,0%
CCO/C(=C\Oc1ccc(Cn2ccc(C(=O)OCC(C)C)n2)cc1)C(F)(F)F [compound 357],Test A rating (disease control),[2]; 10 ppm test suspension,100%
same,Test B rating (disease control),[3]; 10 ppm test suspension,9%
CCO/C(=C\Oc1ccc(Cn2cc(C(=O)OC(C)C)cn2)cc1)C(F)(F)F [compound 139],Test A rating (disease control),[2]; 10 ppm test suspension,100%
same,Test B rating (disease control),[3]; 10 ppm test suspension,0%
